The text below walks through data of patent US20220024877A1 (Kansas State University Research Foundation, priority 2018, published 2022).

In brackets after ≈: the same amount, converted by molar mass. Like-named read-outs stand apart in the source and are kept apart here.

For orientation: MIC means the lowest concentration found to suppress growth. In general, IC50 refers to the concentration that inhibits the measured activity by half.

Experiment [1] deals with MRSA. Nature of the experiment: In vitro activity against S. aureus (MRSA), MIC with or without Cu supplementation. The following applies: for MIC: Staphylococcus aureus, MRSA; for MIC* against MRSA: kinetic data (determined from bacteria growth experiments), resulting in IC50 values similar to MIC values.
Experimental: S. aureus was inoculated in Mueller-Hinton medium from frozen stocks and grown for 2-4 h (until reaching an OD600˜1) at 37° C. while shaking. Once the OD was reached, bacteria were harvested and diluted in Phenolred-free RPMI1640 medium to an OD of 0.01 (=inoculum). Test compounds where diluted from frozen DMSO-stocks were diluted in Phenolred-free RPMI1640 medium with or without Cu supplementation (100 μM) and serially diluted in 96-well plates in the same medium to achieve a final concentration of between 0.08 and 10 μM after addition of an equal volume of inoculum. Medium-only controls and growth controls in the absence of test compounds were also included. The plates were placed in sealed bags and incubated at 37° C. After 15-20 h incubation time, an OD600 reading was taken and analyzed. […] If kinetic data were required, resazurin was added to each well. Using a plate reader with incubation chamber, resazurin conversion was monitored by fluorescence reading every 20 min for up to 24 h. After normalizing the data to respective controls, the MIC was determined using the same definition as above.
The nature of experiment [2]: Copper(I) binding constant of NNSN compounds (1H-NMR titration with CuBr in D4-methanol). The following applies: for Copper (I) binding constant: Table I; for Binding constant: Cu-NNSN 1:1 stoichiometry. The protocol:
They were recorded in D4-methanol by means of adding aliquots of a 5 mmol CuBr stock solution in D4-methanol to the 1 mmol NNSN-compound, resulting in 0, 0.5, 1.0, 2.0 and 3.0 mmol CuBr concentration in D4-methanol.

For experiment [3], the system named is multi-drug resistant Gram-positive bacteria. The following applies: current antibiotics, background section; cited from earlier work.
In experiment [4] the test system is S. aureus strain 1471. Description: Drop assay against S. aureus strain 1471 with or without copper. The following applies: Staphylococcus aureus, 1471, read-out: MIC: +50 μM Cu.
Experimental: For the drop assay, bacteria were grown in wells with or without copper, using a 1:2 drug titration starting at 10 μM.
The test system of experiment [5] is Avirulent Mtb strain mc26206 (H37Rv ΔpanCD ΔleuCD, double auxotroph). Description: microbe, parasite or virus in culture. In kind it is cell-based. The following applies: Mycobacterium tuberculosis.
Setting [6] is: read-out: MIC* against MRSA (μM), kinetic data (determined from bacteria growth experiments), resulting in IC50 values similar to MIC values.

For `S=C(Nc1ccc(Br)cc1)n1cccn1` [SB26, N-(4-bromophenyl)-1H-pyrazole-1-carbothioamide], the MIC in experiment [1] (setting [6]) was determined as 10 µM (≈ 2.82 µg/mL). Moreover, the “Copper (I) binding constant” value in experiment [2] stood at 1550 M⁻¹.

As to `S=C(Nc1ccc(Cl)cc1)n1cc(Br)cn1` [SB68, 4-bromo-N-(4-chlorophenyl)-1H-pyrazole-1-carbothioamide], in experiment [1] (organism not named there), the MIC came out at 10 µM (≈ 3.17 µg/mL).

With `Nc1ccn(C(=S)Nc2ccc(Br)cc2)n1` [SB33, 3-amino-N-(4-bromophenyl)-1H-pyrazole-1-carbothioamide], the minimum inhibitory concentration (MIC) in experiment [1] (setting [6]) worked out at 1.25 µM (≈ 0.371 µg/mL). For the same compound, in experiment [2], the “Copper (I) binding constant” value was 5830 M⁻¹.

Turning to `Cc1nn(C(=S)Nc2ccc(Cl)cc2)cc1[N+](=O)[O-]` [SB47, N-(4-chlorophenyl)-3-methyl-4-nitro-1H-pyrazole-1-carbothioamide], the MIC in experiment [1] (setting [6]) came out at 2.5 µM (≈ 0.742 µg/mL).

On to `O=[N+]([O-])c1ccc(NC(=S)Nc2cc[nH]n2)cc1` [SB28, 1-(4-nitrophenyl)-3-(1H-pyrazol-3-yl)thiourea], for which the MIC in experiment [1] (read-out: MIC (MRSA), MRSA) is 5 µM (≈ 1.32 µg/mL). Moreover, in experiment [2], the “Binding constant” value was 1200 M⁻¹.

In the case of Daptinomycin, the “minimum inhibitory concentrations (MICs)” value in experiment [3] was 0.6 µM.

Consider `S=C(Nc1cccc(Cl)c1)Nc1ccn(C(=S)Nc2cccc(Cl)c2)n1` [SB57, N-(3-chlorophenyl)-3-(3-(3-chlorophenyl)thioureido)-1H-pyrazole-1-carbothioamide], for which the MIC in experiment [4] stood at 0.6 µM (≈ 0.253 µg/mL).

As to `Nc1ccn(C(=S)Nc2cccc(Cl)c2)n1` [SB50, 3-amino-N-(3-chlorophenyl)-1H-pyrazole-1-carbothioamide], the MIC in experiment [1] (setting [6]) stood at 0.15 µM (≈ 0.0379 µg/mL).

Take `Nc1cnn(C(=S)Nc2ccc(Cl)cc2)c1` [SB39]: the “Binding constant” value in experiment [2] was 2200 M⁻¹.

For the compound `Nc1ccn(C(=S)Nc2ccc(N=C=S)cc2)n1` [SB79, 3-amino-N-(4-isothiocyanatophenyl)-1H-pyrazole-1-carbothioamide], the IC50 in experiment [5] (read-out: IC50 +Cu) and in experiment [5] (read-out: IC50 −Cu) was more than 100 µM each time. Besides, the MIC90 in experiment [5] (read-out: MIC90 +Cu) and in experiment [5] (read-out: MIC90 −Cu) was more than 100 µM each time.

Regarding `COC(=O)c1ccn(C(=S)Nc2ccccc2Cl)n1` [SB73], the MIC in experiment [1] (setting [6]) is 5 µM (≈ 1.48 µg/mL). In experiment [2], the “Copper (I) binding constant” value turned out to be 985.27 M⁻¹.

Turning to `Cn1ccc(NC(=S)Nc2ccc(Cl)cc2)n1` [SB29], in experiment [2], the “Binding constant” value was 1150 M⁻¹.

In experiment [1] (organism not named there), `Cc1ccn(C(=S)Nc2c(C)cccc2C)n1` [SB72, N-(2,6-dimethylphenyl)-3-methyl-1H-pyrazole-1-carbothioamide] returned an MIC of 0.6 µM (≈ 0.147 µg/mL).

As to `CN[C@H](CC(C)C)C(=O)N[C@H]1C(=O)N[C@@H](CC(N)=O)C(=O)N[C@H]2C(=O)N[C@H]3C(=O)N[C@H](C(=O)N[C@H](C(=O)O)c4cc(O)cc(O)c4-c4cc3ccc4O)[C@H](O)c3ccc(c(Cl)c3)Oc3cc2cc(c3O[C@@H]2O[C@H](CO)[C@@H](O)[C@H](O)[C@H]2O[C@H]2C[C@](C)(N)[C@H](O)[C@H](C)O2)Oc2ccc(cc2Cl)[C@H]1O` [Vancomycin], the “minimum inhibitory concentrations (MICs)” value in experiment [3] is 2.2 µM (≈ 3.19 µg/mL).

With `O=[N+]([O-])c1cnn(C(=S)Nc2ccccc2Cl)c1` [SB56, N-(2-chlorophenyl)-4-nitro-1H-pyrazole-1-carbothioamide], the MIC in experiment [4] is 5 µM (≈ 1.41 µg/mL).

As to `Fc1ccc(NC(=S)n2cccn2)cc1` [SB23, N-(4-fluorophenyl)-1H-pyrazole-1-carbothioamide], the MIC in experiment [1] (organism not named there) is more than 10 µM. Also, the “Binding constant” value in experiment [2] was 22057 M⁻¹.

Consider `Nc1cnn(C(=S)NCc2ccccc2Cl)c1` [SB62, 4-amino-N-(2-chlorobenzyl)-1H-pyrazole-1-carbothioamide], for which the MIC in experiment [4] turned out to be 5 µM (≈ 1.33 µg/mL).

`CCOC(=O)c1ccn(C(=S)Nc2ccc(Cl)cc2)n1` [SB77]: in experiment [1] (setting [6]), the minimum inhibitory concentration (MIC) was 0.6 µM (≈ 0.186 µg/mL). The “Copper (I) binding constant” value in experiment [2] was 1580.08 M⁻¹.

For the compound `S=C(Nc1ccc(Cl)cc1)n1ccnn1` [SB18], the “Binding constant” value in experiment [2] was less than 1000 M⁻¹.

Turning to `CC(C)(C)n1ccc(NC(=O)Nc2ccc(Cl)cc2)n1` [SB10, 1-(1-(tert-butyl)-1H-pyrazol-3-yl)-3-(4-chlorophenyl)urea], the “Binding constant” value in experiment [2] stood at 1786.13 M⁻¹.

Consider `S=C(Nc1ccc(Cl)cc1)n1cccn1` [listing 1 of 2 here], for which the “MIC* against MRSA” value in experiment [1] was 1.25 µM (≈ 0.297 µg/mL). Besides, in experiment [2], the “Copper (I) binding constant” value was determined as 1434 M⁻¹.

Consider `COc1ccc(NC(=S)n2ccc(N)n2)cc1` [SB31, 3-amino-N-(4-methoxyphenyl)-1H-pyrazole-1-carbothioamide], for which the minimum inhibitory concentration (MIC) in experiment [1] (setting [6]) is 10 µM (≈ 2.48 µg/mL). The “Copper (I) binding constant” value in experiment [2] turned out to be 5452 M⁻¹.

Compound `O=[N+]([O-])c1ccc(NC(=S)n2cccn2)cc1` [SB21, N-(4-nitrophenyl)-1H-pyrazole-1-carbothioamide] yielded an MIC in experiment [1] (organism not named there) of 10 µM (≈ 2.48 µg/mL). In experiment [2], the “Binding constant” value came to 26063 M⁻¹.

Take `COC(=O)c1ccn(C(=S)Nc2cccc(Cl)c2)n1` [SB74, Methyl 1-((3-chlorophenyl)carbamothioyl)-1H-pyrazole-3-carboxylate]: the MIC in experiment [1] (setting [6]) came out at 2.5 µM (≈ 0.739 µg/mL). The “Copper (I) binding constant” value in experiment [2] stood at 1127.86 M⁻¹.

Compound `S=C(Nc1ccc(Cl)cc1)n1cccn1` [listing 2 of 2 here] showed a minimum inhibitory concentration (MIC) in experiment [1] (organism not named there) of 5 µM (≈ 1.19 µg/mL). For the same compound, the “MIC* against MRSA” value in experiment [1] worked out at 5.0 µM (≈ 1.19 µg/mL). Also, in experiment [2], the “Binding constant” value was 2100 M⁻¹ and the “Copper (I) binding constant” value came to 2100 M⁻¹.

As to `S=C(Nc1ccccc1Cl)n1cccn1` [SB46, N-(2-chlorophenyl)-1H-pyrazole-1-carbothioamide], the IC50 in experiment [5] (read-out: IC50 +Cu) is 10 µM; in experiment [5] (read-out: IC50 −Cu) it was more than 100 µM. Further, the MIC90 in experiment [5] (read-out: MIC90 +Cu) and in experiment [5] (read-out: MIC90 −Cu) was more than 100 µM throughout. Also, the MIC in experiment [1] (setting [6]) was 0.3 µM (≈ 0.0713 µg/mL).

As to `S=C(Nc1cccc(Cl)c1)n1cccn1` [SB52, N-(3-chlorophenyl)-1H-pyrazole-1-carbothioamide], the MIC in experiment [1] (setting [6]) was determined as 2.5 µM (≈ 0.594 µg/mL).

For the compound `O=[N+]([O-])c1cnn(C(=S)Nc2cccc(Cl)c2)c1` [SB59, N-(3-chlorophenyl)-4-nitro-1H-pyrazole-1-carbothioamide], the MIC in experiment [4] was 2.5 µM (≈ 0.707 µg/mL).

On to `S=C(Nc1ccn(C(=S)Nc2ccccc2Cl)n1)Nc1ccccc1Cl` [SB53, N-(2-chlorophenyl)-3-(3-(2-chlorophenyl)thioureido)-1H-pyrazole-1-carbothioamide], for which the minimal inhibitory concentration (MIC) in experiment [1] (setting [6]) was 0.3 µM (≈ 0.127 µg/mL).

The compound `O=[N+]([O-])c1ccc(COc2ccn(C(=S)Nc3ccc(Cl)cc3)n2)cc1` [SB63, N-(4-chlorophenyl)-3-((4-nitrobenzyl)oxy)-1H-pyrazole-1-carbothioamide] came in with an MIC in experiment [1] (organism not named there) of more than 10 µM.

`O=[N+]([O-])c1cnn(C(=S)Nc2ccc(Cl)cc2)c1` [SB30, N-(4-chlorophenyl)-4-nitro-1H-pyrazole-1-carbothioamide]: the “Binding constant” value in experiment [2] was 1100 M⁻¹.

For the compound `FC(F)(F)c1ccn(C(=S)Nc2ccc(Cl)cc2)n1` [SB20], the “Binding constant” value in experiment [2] is less than 1000 M⁻¹.

Regarding `Cc1ccn(C(=S)Nc2ccccc2Cl)n1` [SB60, N-(2-chlorophenyl)-3-methyl-1H-pyrazole-1-carbothioamide], in experiment [4], the MIC was 1.25 µM (≈ 0.315 µg/mL).

On to `Nc1ccn(C(=S)Nc2ccc(F)cc2)n1` [SB37, 3-amino-N-(4-fluorophenyl)-1H-pyrazole-1-carbothioamide], for which the MIC in experiment [1] (setting [6]) stood at 10 µM (≈ 2.36 µg/mL). Moreover, in experiment [2], the “Copper (I) binding constant” value was determined as 5540 M⁻¹.

For `S=C(Nc1ccccc1Cl)n1ccc(OCc2ccccc2)n1` [SB64, 3-(benzyloxy)-N-(2-chlorophenyl)-1H-pyrazole-1-carbothioamide], the values for the IC50 in experiment [5] (read-out: IC50 +Cu) and in experiment [5] (read-out: IC50 −Cu) were 0.8 µM and more than 100 µM, respectively. For the same compound, the MIC90 is 1.6 µM (≈ 0.55 µg/mL) in experiment [5] (read-out: MIC90 +Cu) and more than 100 µM in experiment [5] (read-out: MIC90 −Cu).

Regarding `CN(C(=S)Nc1ccccc1Cl)c1ccn(C(=S)Nc2ccccc2Cl)n1` [SB55, N-(2-chlorophenyl)-3-(3-(2-chlorophenyl)-1-methylthioureido)-1H-pyrazole-1-carbothioamide], in experiment [4], the MIC was found to be 10 µM (≈ 4.36 µg/mL).

Regarding `Nc1ccn(C(=S)Nc2ccccc2Cl)n1` [SB49, 3-amino-N-(2-chlorophenyl)-1H-pyrazole-1-carbothioamide], the MIC in experiment [1] (setting [6]) was determined as 0.6 µM (≈ 0.152 µg/mL).

For Teicoplanin, in experiment [3], the “minimum inhibitory concentrations (MICs)” value was 0.8 to 1.0 µM.

Regarding `Cc1ccc(NC(=S)n2cccn2)cc1` [SB25, N-(p-tolyl)-1H-pyrazole-1-carbothioamide], the MIC in experiment [1] (setting [6]) worked out at 5 µM (≈ 1.09 µg/mL). In addition, the “Copper (I) binding constant” value in experiment [2] is 1635 M⁻¹.

On to `O=[N+]([O-])c1cnn(C(=S)Nc2ccc(Cl)cc2)c1` [SB38], for which the “Binding constant” value in experiment [2] is less than 100 M⁻¹.

In the case of `CN(C)c1ccn(C(=S)Nc2ccc(Cl)cc2)n1` [SB40, N-(4-chlorophenyl)-3-(dimethylamino)-1H-pyrazole-1-carbothioamide], the minimal inhibitory concentration (MIC) in experiment [1] (setting [6]) was 0.6 µM (≈ 0.168 µg/mL). Also, the “Copper (I) binding constant” value in experiment [2] turned out to be 58500 M⁻¹.

With `Cc1cccc(C)c1NC(=S)n1cccn1` [SB71, N-(2,6-dimethylphenyl)-1H-pyrazole-1-carbothioamide], the minimum inhibitory concentration (MIC) in experiment [1] (organism not named there) turned out to be 0.6 µM (≈ 0.139 µg/mL).

Consider `Cn1ccc(NC(=O)Nc2ccc(Cl)cc2)n1` [SB11, 1-(4-chlorophenyl)-3-(1-methyl-1H-pyrazol-3-yl)urea], for which the “Binding constant” value in experiment [2] is less than 100 M⁻¹.

For `Cc1ccc(NC(=S)n2ccc(N)n2)cc1` [SB32, 3-amino-N-(p-tolyl)-1H-pyrazole-1-carbothioamide], the MIC in experiment [1] (setting [6]) came to 2.5 µM (≈ 0.581 µg/mL). The “Copper (I) binding constant” value in experiment [2] was found to be 6140 M⁻¹.

For the compound `CN(C(=S)Nc1ccc(Cl)cc1)c1ccn(C(=S)Nc2ccc(Cl)cc2)n1` [SB45, N-(4-chlorophenyl)-3-(3-(4-chlorophenyl)-1-methylthioureido)-1H-pyrazole-1-carbothioamide], the IC50 is 2 µM in experiment [5] (read-out: IC50 +Cu) and more than 50 µM in experiment [5] (read-out: IC50 −Cu). Besides, the MIC90 in experiment [5] (read-out: MIC90 +Cu) is 3.5 µM (≈ 1.53 µg/mL); in experiment [5] (read-out: MIC90 −Cu), more than 100 µM. The MIC in experiment [1] (setting [6]) was less than 0.016 µM.
